Laboratory results published in patent US20020031795A1, “Nitrocoumarins for detecting all micro-organisms” (priority 1998, published 2002).

How the values were obtained:
Test in all cases: Fluorescence after 24 hours, serial dilutions in Trypticase Soy broth
Assay type in all cases: cell-based
[1] = test system: Shigella sonnei (NCTC 8586)
Protocol: (§1) This experiment was performed to test 7-nitrocoumarin-3-carboxylic acid on sixteen (16) different types of microorganism, including one yeast species.
(§2) A mass of 10 mg of the indicator was dissolved in 4 ml of hot, distilled water and this solution was then added to 96 ml of Trypticase Soy broth. The resultant mixture was sterile-filtered.
(§3) All the microorganisms were grown for 24 hours in Trypticase Soy broth at 35° C. Each culture was then diluted 1,000-fold in Trypticase Soy broth and then serial 10-fold dilutions were made in more Trypticase Soy broth until the test aliquot contained no more microbial cells.
(§4) The resultant dilutions ranged from 10^−3 to 10^−13.
(§5) Fifty microliters of each dilution plus 50 μl of Trypticase Soy broth were added to wells of a microtiter plate with or without 7-nitrocoumarin-3-carboxylic acid.
(§6) The plates were read (T zero) and then incubated at 35° C. before being read again after 24 hours. Two different readings were made at each time point:
(§7) of the fluorescence (excitation at 365 nm and emission at 440 nm), using a Biolite F1 2001 fluorometer (Labtech International Limited), for wells containing 7-nitrocoumarin-3-carboxylic acid.

[2] = test system: Shewanella putrefaciens (ATCC 8071)
Protocol: as §1, §2, §3, §4, §5, §6, §7

[3] = test system: Listeria ivanovii (wild strain)
Protocol: as §1, §2, §3, §4, §5, §6, §7

[4] = test system: Streptococcus mitis (NCTC 12261)
Protocol: as §1, §2, §3, §4, §5, §6, §7

[5] = test system: Serratia marcescens (NCTC 10211)
Protocol: as §1, §2, §3, §4, §5, §6, §7

[6] = test system: Moraxella nonliquefaciens (ATCC 19975)
Protocol: as §1, §2, §3, §4, §5, §6, §7

[7] = test system: Pseudomonas putida (ATCC 12633)
Protocol: as §1, §2, §3, §4, §5, §6, §7

[8] = test system: Staphylococcus aureus (NCTC 6571)
Protocol: as §1, §2, §3, §4, §5, §6, §7

[9] = test system: Acinetobacter haemolyticus (ATCC 17906)
Protocol: as §1, §2, §3, §4, §5, §6, §7

[10] = test system: Burkholderia cepacia (ATCC 25416)
Protocol: as §1, §2, §3, §4, §5, §6, §7

[11] = test system: Moraxella osloensis (ATCC 19976)
Protocol: as §1, §2, §3, §4, §5, §6, §7

`O=C(O)c1cc2ccc([N+](=O)[O-])cc2oc1=O` [7-nitrocoumarin-3-carboxylic acid] was tested, and the Fluorescence reading ([1]; dilution 10^−3) was 51755, the Fluorescence reading ([1]; dilution 10^−4) was 50254 and the Fluorescence reading ([1]; dilution 10^−5) was 50166. The Fluorescence reading ([1]; dilution 10^−6) was 50278, the Fluorescence reading ([1]; dilution 10^−7) was 49882 and the Fluorescence reading ([1]; dilution 10^−8) was 47370. For the same compound, the Fluorescence reading ([1]; dilution 10^−9) was 1816, the Fluorescence reading ([1]; dilution 10^−10) was 1990 and the Fluorescence reading ([1]; dilution 10^−11) was 1960. It also gave a Fluorescence reading ([1]; dilution 10^−12) of 1956, a Fluorescence reading ([1]; dilution 10^−13) of 1911 and a Fluorescence reading ([2]; dilution 10^−3) of 40277. It also gave a Fluorescence reading ([2]; dilution 10^−4) of 37262, a Fluorescence reading ([2]; dilution 10^−5) of 34890 and a Fluorescence reading ([2]; dilution 10^−6) of 32034. For the same compound, the Fluorescence reading ([2]; dilution 10^−7) was 31793, the Fluorescence reading ([2]; dilution 10^−8) was 1911 and the Fluorescence reading ([2]; dilution 10^−9) was 1902. The Fluorescence reading ([2]; dilution 10^−10) was 1972, the Fluorescence reading ([2]; dilution 10^−11) was 1917 and the Fluorescence reading ([2]; dilution 10^−12) was 1935. It also gave a Fluorescence reading ([2]; dilution 10^−13) of 1990, a Fluorescence reading ([3]; dilution 10^−3) of 16246 and a Fluorescence reading ([3]; dilution 10^−4) of 44910. The Fluorescence reading ([3]; dilution 10^−5) was 13185, the Fluorescence reading ([3]; dilution 10^−6) was 44865 and the Fluorescence reading ([3]; dilution 10^−7) was 9251. For the same compound, the Fluorescence reading ([3]; dilution 10^−8) was 8137, the Fluorescence reading ([3]; dilution 10^−9) was 44425 and the Fluorescence reading ([3]; dilution 10^−10) was 1663. The Fluorescence reading ([3]; dilution 10^−11) was 1651, the Fluorescence reading ([3]; dilution 10^−12) was 1691 and the Fluorescence reading ([3]; dilution 10^−13) was 1682. It also gave a Fluorescence reading ([4]; dilution 10^−3) of 20988, a Fluorescence reading ([4]; dilution 10^−4) of 21541 and a Fluorescence reading ([4]; dilution 10^−5) of 19899. For the same compound, the Fluorescence reading ([4]; dilution 10^−6) was 19619, the Fluorescence reading ([4]; dilution 10^−7) was 17228 and the Fluorescence reading ([4]; dilution 10^−8) was 1682. The Fluorescence reading ([4]; dilution 10^−9) was 1676, the Fluorescence reading ([4]; dilution 10^−10) was 1691 and the Fluorescence reading ([4]; dilution 10^−11) was 1636. For the same compound, the Fluorescence reading ([4]; dilution 10^−12) was 1644, the Fluorescence reading ([4]; dilution 10^−13) was 1669 and the Fluorescence reading ([5]; dilution 10^−3) was 47178. For the same compound, the Fluorescence reading ([5]; dilution 10^−4) was 49470, the Fluorescence reading ([5]; dilution 10^−5) was 45804 and the Fluorescence reading ([5]; dilution 10^−6) was 45454. It also gave a Fluorescence reading ([5]; dilution 10^−7) of 45637, a Fluorescence reading ([5]; dilution 10^−8) of 43088 and a Fluorescence reading ([5]; dilution 10^−9) of 48320. It also gave a Fluorescence reading ([5]; dilution 10^−10) of 1678, a Fluorescence reading ([5]; dilution 10^−11) of 1641 and a Fluorescence reading ([5]; dilution 10^−12) of 1636. It also gave a Fluorescence reading ([5]; dilution 10^−13) of 1621, a Fluorescence reading ([6]; dilution 10^−3) of 28160 and a Fluorescence reading ([6]; dilution 10^−4) of 27889. The Fluorescence reading ([6]; dilution 10^−5) was 28439, the Fluorescence reading ([6]; dilution 10^−6) was 27648 and the Fluorescence reading ([6]; dilution 10^−7) was 27385. It also gave a Fluorescence reading ([6]; dilution 10^−8) of 27196, a Fluorescence reading ([6]; dilution 10^−9) of 1974 and a Fluorescence reading ([6]; dilution 10^−10) of 2057. The Fluorescence reading ([6]; dilution 10^−11) was 2002, the Fluorescence reading ([6]; dilution 10^−12) was 1956 and the Fluorescence reading ([6]; dilution 10^−13) was 1907. The Fluorescence reading ([7]; dilution 10^−3) was 12589, the Fluorescence reading ([7]; dilution 10^−4) was 9810 and the Fluorescence reading ([7]; dilution 10^−5) was 7670. The Fluorescence reading ([7]; dilution 10^−6) was 6806, the Fluorescence reading ([7]; dilution 10^−7) was 5714 and the Fluorescence reading ([7]; dilution 10^−8) was 1715. The Fluorescence reading ([7]; dilution 10^−9) was 1664, the Fluorescence reading ([7]; dilution 10^−10) was 1660 and the Fluorescence reading ([7]; dilution 10^−11) was 1651. For the same compound, the Fluorescence reading ([7]; dilution 10^−12) was 1660, the Fluorescence reading ([7]; dilution 10^−13) was 1657 and the Fluorescence reading ([8]; dilution 10^−3) was 46607. The Fluorescence reading ([8]; dilution 10^−4) was 45207, the Fluorescence reading ([8]; dilution 10^−5) was 44544 and the Fluorescence reading ([8]; dilution 10^−6) was 43559. It also gave a Fluorescence reading ([8]; dilution 10^−7) of 41437, a Fluorescence reading ([8]; dilution 10^−8) of 1678 and a Fluorescence reading ([8]; dilution 10^−9) of 1666. It also gave a Fluorescence reading ([8]; dilution 10^−10) of 1666, a Fluorescence reading ([8]; dilution 10^−11) of 1620 and a Fluorescence reading ([8]; dilution 10^−12) of 1706. The Fluorescence reading ([8]; dilution 10^−13) was 1669, the Fluorescence reading ([9]; dilution 10^−3) was 19231 and the Fluorescence reading ([9]; dilution 10^−4) was 17403. The Fluorescence reading ([9]; dilution 10^−5) was 12614, the Fluorescence reading ([9]; dilution 10^−6) was 9727 and the Fluorescence reading ([9]; dilution 10^−7) was 4236. For the same compound, the Fluorescence reading ([9]; dilution 10^−8) was 1981, the Fluorescence reading ([9]; dilution 10^−9) was 1938 and the Fluorescence reading ([9]; dilution 10^−10) was 2005. For the same compound, the Fluorescence reading ([9]; dilution 10^−11) was 1947, the Fluorescence reading ([9]; dilution 10^−12) was 1904 and the Fluorescence reading ([9]; dilution 10^−13) was 1938. For the same compound, the Fluorescence reading ([10]; dilution 10^−3) was 16978, the Fluorescence reading ([10]; dilution 10^−4) was 16719 and the Fluorescence reading ([10]; dilution 10^−5) was 16808. For the same compound, the Fluorescence reading ([10]; dilution 10^−6) was 15800, the Fluorescence reading ([10]; dilution 10^−7) was 11973 and the Fluorescence reading ([10]; dilution 10^−8) was 1969. It also gave a Fluorescence reading ([10]; dilution 10^−9) of 1996, a Fluorescence reading ([10]; dilution 10^−10) of 1950 and a Fluorescence reading ([10]; dilution 10^−11) of 1925. For the same compound, the Fluorescence reading ([10]; dilution 10^−12) was 1965, the Fluorescence reading ([10]; dilution 10^−13) was 1914 and the Fluorescence reading ([11]; dilution 10^−3) was 11426. The Fluorescence reading ([11]; dilution 10^−4) was 9949, the Fluorescence reading ([11]; dilution 10^−5) was 7700 and the Fluorescence reading ([11]; dilution 10^−6) was 5875. The Fluorescence reading ([11]; dilution 10^−7) was 1925, the Fluorescence reading ([11]; dilution 10^−8) was 1941 and the Fluorescence reading ([11]; dilution 10^−9) was 1977. It also gave a Fluorescence reading ([11]; dilution 10^−10) of 2039, a Fluorescence reading ([11]; dilution 10^−11) of 1938 and a Fluorescence reading ([11]; dilution 10^−12) of 1907. For the same compound, the Fluorescence reading ([11]; dilution 10^−13) was 1945.
